# Several values for one entry are separate records, joined by “and”; a condition that tells them apart may be missing. Equal entries are not always repeated. Entries after “also recorded” stand apart in the source; their conditions may differ.
# Experiments:
# [1] = Body weight and food consumption in the DMBA binding experiment; assay type: in vivo, mouse; conditions: two weeks of feeding
# Experimental: Binding of [^3 H]DMBA to mouse skin DNA was determined as described in Pashko, L. L., and Schwartz, A. G. (1983), Effect of food restriction, dehydroepiandrosterone, or obesity on the binding of ^3 H-7,12-dimethylbenz(a)anthracene to mouse skin DNA, J. Gerontol., 38, 8-12. Values are mean±SD for 3 individual determinations, with pooled tissue from 2 mice used for each determination. DHEA or testosterone (400 ug in 0.2 ml acetone) was applied to the skin one hour before [^3 H]DMBA. The mean weight of the food restricted mice was 18.5±1.0 gm, n=6, of the ad libitum fed, 27.4±1.0 gm, n=6, of the ad libitum fed treated with DHEA, 28.2±0.9 gm, n=6, and of the ad libitum fed treated with testosterone, 28.3±0.9 gm, n=6, following two weeks of feeding. The average food consumed was, in gm/mouse/day, 2.2, 3.8, 3.8 and 4.0 for the food restricted, ad libitum fed, ad libitum fed plus DHEA, and ad libitum fed plus testosterone groups, respectively.
# [2] = system: mouse epidermal DNA (TPA stimulated 3H-thymidine incorporation); assay: TPA stimulation of 3H-thymidine incorporation in epidermis, topical steroid; assay type: in vivo, mouse (A/J); conditions: no steroid 66, TPA alone 174
# Experimental: (§1) Tumor promoters, such as TPA, stimulate hyperplasia and DNA synthesis when applied to the skin, and it is believed that this stimulation is an important step in the enhancement of tumorigenesis.
# Incorporation of ^3 H-thymidine into A/J mouse epidermal DNA was determined as described in Pashko, L. L., Schwartz, A. G., Abou-Gharbia, M. and Swern, D. (1981), Inhibition of DNA synthesis in mouse epidermis and breast epithelium by dehydroepiandrosterone and related steroids, Carcinogenesis, 2, 717-721. Values are mean±SD for 3 separately treated mice in each group 20 hours after TPA application. DHEA or testosterone was added topically in 0.2 ml acetone one hour before TPA addition.
# [3] = system: mouse skin DNA; assay: (3H) DMBA binding to skin DNA; assay type: in vivo, mouse (A/J); conditions: for effect on 3H-DMBA binding to skin DNA: oral, mice, doses well below 400 mg/kg
# [4] = molecular target: purified bovine adrenal G6PDH (Bos taurus, UniProt F1MMK2); assay: G6PDH inhibition test; assay type: biochemical; conditions: individual determinations; for inhibition at 10 µM / inhibition at 1 µM / inhibition at 0.1 µM: read-out: Percent Inhibition of G6PDH
# Sequence of purified bovine adrenal G6PDH (F1MMK2 31-70): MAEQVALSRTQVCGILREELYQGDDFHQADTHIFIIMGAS
# Sequence of purified bovine adrenal G6PDH (F1MMK2 101-575): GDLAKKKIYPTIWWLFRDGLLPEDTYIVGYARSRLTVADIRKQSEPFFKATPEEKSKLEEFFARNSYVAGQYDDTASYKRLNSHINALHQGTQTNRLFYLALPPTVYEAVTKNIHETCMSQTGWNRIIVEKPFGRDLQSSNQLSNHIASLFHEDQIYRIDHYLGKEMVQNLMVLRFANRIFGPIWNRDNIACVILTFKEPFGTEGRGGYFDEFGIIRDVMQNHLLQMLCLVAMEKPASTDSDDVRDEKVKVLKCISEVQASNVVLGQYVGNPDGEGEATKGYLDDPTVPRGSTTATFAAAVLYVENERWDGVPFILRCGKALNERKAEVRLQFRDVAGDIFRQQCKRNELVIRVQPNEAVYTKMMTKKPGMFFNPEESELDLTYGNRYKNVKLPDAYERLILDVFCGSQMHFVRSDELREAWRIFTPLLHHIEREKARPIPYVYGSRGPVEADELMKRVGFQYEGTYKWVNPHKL
# From the text: The compound listed below are screened as inhibitors of purified bovine adrenal G6PDH activity as one predictor of cancer preventive action. The assay for testing the inhibition of purified bovine adrenal G6PDH is according to the procedure by Oertell, G. W. and Rebelein, I. in Biochem. Biophys. Acta, 184, 459-460 (1969).
# [5] = in vivo; cited from earlier work
# [6] = system: liver catalase; assay: Liver catalase activity after three weeks of diet treatment; assay type: in vivo, mouse (female Balb/c); conditions: for CATALASE ACTIVITY / catalase activity, in words: 0.25% of diet; for CATALASE ACTIVITY: control 31.1 ± 6.7, DHEA p < 0.05, clofibrate p < 0.001 vs control; for catalase activity, in words: mice
# Experimental: (§2) Female Balb/c mice were housed in polycarbonate cages (6/mice/cage) in animal quarters maintained at 24°±1° C. with 12 hours of light and 12 hours of dark each day. The mice were placed on a diet containing either DHEA, 8354, A, B clofibrate or with no addition. Three weeks later the mice were killed, the livers were perfused with cold saline, weighed, and 5% liver homogenates were prepared for the determination of catalase activity by the spectrophotometric method of Luck (H. Luck, in Method in Enzyme Analysis, H. U. Bergmeyer, Ed. (Verlag Chemie, Weinheim/Bergstrasse, Germany, 1965)). Total protein was measured by the method of Lowry, et al. (O. H. Lowry, N. J. Rosebrough, A. L. Farr, R. J. Randall, J. Biol. Chem., 193, 265 (1951)).
# [7] = Liver weight after three weeks of diet treatment; assay type: in vivo, mouse (female Balb/c); conditions: 0.25% of diet; for LIVER WEIGHT: control 0.057 ± 0.006, DHEA p < 0.05, clofibrate p < 0.002 vs control; for liver weight, in words: mice
# Experimental: as §2
# [8] = system: mouse epidermis (TPA stimulated 3H-thymidine incorporation); assay: TPA stimulation of 3H-thymidine incorporation in mouse epidermis, oral steroid; assay type: in vivo, mouse (male ICR)
# Experimental: as §1
# Male ICR mice were orally intubated with steroid suspended in sesame oil (0.5 ml/mouse) at the indicated dose. Mice not receiving steroid were given sesame oil alone. One hour later mice received topical application of TPA and 20 hours later the rate of ^3 H-thymidine incorporation into the epidermis was determined as described in Pashko, L. L., Schwartz, A. G., Abou-Gharbia, M., and Swern, D. (1981), Inhibition of DNA synthesis in mouse epidermis and breast epithelium by dehydroepiandrosterone and related steroids, Carcinogenesis, 2,-717-721.
# Experimental conditions are the same as in Table 3.
# [9] = Estrogenic / androgenic side-effects, general statements; conditions: in vivo
# [10] = Anti-obesity action, body weight, male A/J mice; assay type: in vivo, mouse (male A/J); conditions: 0.45% in diet
# Experimental: Male A/J (5 weeks old) mice were obtained from the
# Jackson Laboratory and were housed in polycarbonate cages (6
# mice/cage) in animal quarters maintained at 24 ± 1° C. with 12
# hours of light and 12 hours of darkness each day. One week
# after arrival, the mice were placed on a diet containing
# either DHEA, 8353, or without steroid. Animals were weighed
# [11] = Estrogenic and anti-estrogenic activity, uterine weight; assay type: in vivo, rat (female CD); conditions: 60 mg/kg s.c. for 3 days; control 2.02 ± 0.28; DHEA significantly greater than control, p < .001
# Experimental: Estrogenic and Anti-Estrogenic Activity
# Female CD rats, 26-27 days old, were injected subcutaneously for 3 days with one of the compounds of the present invention at 60 mg/kg in propylene glycol. Controls received propylene glycol alone. On the 4th day, the rats were killed and the uteri were dissected out and weighed.
smiles,measurement,setting,value
C[C@]12CC[C@H]3[C@@H](CCC4=CC(=O)CC[C@@]43C)[C@@H]1CC[C@@H]2O [testosterone],mean body weight,"[1]; topical 400 ug, ad libitum fed 27.4±1.0",28.3±0.9 gm
same,average food consumed,[1]; ad libitum fed 3.8,4.0 gm/mouse/day
same,"SPECIFIC ACTIVITY, TPA stimulated 3H-thymidine incorporation",[2]; topical 100 ug,128 ± 13 cpm/ug DNA
same,"SPECIFIC ACTIVITY, TPA stimulated 3H-thymidine incorporation",[2]; topical 400 ug,142 ± 5.9 cpm/ug DNA
same,"SPECIFIC ACTIVITY, (3H) DMBA binding to skin DNA","[3]; 400 ug topical one hour before DMBA, ad libitum fed 116 ± 5.2",164 ± 8.4 cpm/ug DNA
same,effect on rate of binding of 3H-DMBA to skin DNA,"[3]; topical, in words (Table 4)",without inhibitory effect
C[C@@H]1C[C@H]2[C@@H]3CC=C4CCCC[C@]4(C)[C@H]3CC[C@]2(C)C1=O [C],Percent Inhibition of G6PDH,[4]; 10^-5 M,52%
same,inhibition at 10 µM,[4]; 10^-5 M,54%
same,Percent Inhibition of G6PDH,[4]; 10^-6 M,31%
same,inhibition at 1 µM,[4]; 10^-6 M,33%
same,Percent Inhibition of G6PDH,[4]; 10^-7 M,24%
same,inhibition at 0.1 µM,[4]; 10^-7 M,20%
C[C@]12CCCCC1=CC[C@@H]1[C@@H]2CC[C@]2(C)C(=O)[C@](C)(F)C[C@@H]12 [F],inhibition at 10 µM,[4]; 10^-5 M,82%
same,Percent Inhibition of G6PDH,[4]; 10^-6 M,69%
same,inhibition at 1 µM,[4]; 10^-6 M,66%
same,Percent Inhibition of G6PDH,[4]; 10^-7 M,34%
same,inhibition at 0.1 µM,[4]; 10^-7 M,28%
C[C@H]1C[C@H]2[C@@H]3CC=C4CCCC[C@]4(C)[C@H]3CC[C@]2(C)C1=O [D],Percent Inhibition of G6PDH,[4]; 10^-5 M,47%
same,inhibition at 10 µM,[4]; 10^-5 M,44%
same,Percent Inhibition of G6PDH,[4]; 10^-6 M,20%
same,inhibition at 1 µM,[4]; 10^-6 M,13%
"CCOC(=O)C(C)(C)Oc1ccc(Cl)cc1 [Clofibrate, clofibrate, reference compound]",effect on liver (type of hepatomegaly),[5],Typical peroxisome proliferators
same,CATALASE ACTIVITY,[6],92.1 ± 8.9 Units per mg protein
same,increase in liver catalase specific activity,"[6]; 0.25%, vs control",threefold
same,"catalase activity, in words",[6],stimulated catalase activity
same,LIVER WEIGHT,[7],0.084 ± 0.006 gm/gm body weight
same,"liver weight, in words",[7],increased liver weight; also recorded: hepatomegaly
C[C@]12CCCC[C@@H]1CC[C@@H]1[C@@H]2CC[C@]2(C)C(=O)[C@H](F)C[C@@H]12 [B],CATALASE ACTIVITY,[6],32.2 ± 6.0 Units per mg protein
same,"catalase activity, in words",[6],no effect on liver weight or catalase activity
same,LIVER WEIGHT,[7],0.061 ± 0.002 gm/gm body weight
same,"liver weight, in words",[7],no effect on liver weight; also recorded: neither increased liver weight
same,"SPECIFIC ACTIVITY, TPA stimulated 3H-thymidine incorporation","[8]; Table 3, oral 25 mg/kg, no steroid 70.2, TPA alone 154",66.1 ± 9.8 cpm/ug DNA
same,"SPECIFIC ACTIVITY, TPA stimulated 3H-thymidine incorporation","[8]; Table 3, oral 50 mg/kg, no steroid 70.2, TPA alone 154",25.6 ± 4.0 cpm/ug DNA
same,"SPECIFIC ACTIVITY, TPA stimulated 3H-thymidine incorporation","[8]; Table 3, oral 100 mg/kg, no steroid 70.2, TPA alone 154",7.2 ± 3.8 cpm/ug DNA
same,estrogenic and androgenic side-effects,[9],lacking the estrogenic and androgenic side-effects of DHEA
same,effect on 3H-DMBA binding to skin DNA,[3],inhibit ^3 H-DMBA binding to skin DNA
same,inhibition at 10 µM,[4]; 10^-5 M,96%
same,Percent Inhibition of G6PDH,[4]; 10^-6 M,84%
same,inhibition at 1 µM,[4]; 10^-6 M,82%
same,inhibition at 0.1 µM,[4]; 10^-7 M,36%
C[C@]12CCCCC1=CC[C@@H]1[C@@H]2CC[C@]2(C)C(=O)[C@H](O)C[C@@H]12 [Compound 8353],mean weekly weight ± S.D.,"[10]; week 0, control 23 ± 1.5",23.3 ± 1.6 grams
same,mean weekly weight ± S.D.,"[10]; week 1, control 25.0 ± 1.6",21.1 ± 1.4 grams
same,mean weekly weight ± S.D.,"[10]; week 2, control 27.0 ± 1.6",21.9 ± 1.0 grams
same,mean weekly weight ± S.D.,"[10]; week 3, control 27.3 ± 1.6",23.6 ± 1.5 grams
same,mean weekly weight ± S.D.,"[10]; week 4, control 27.5 ± 1.9",23.5 ± 1.5 grams
same,"SPECIFIC ACTIVITY, TPA stimulated 3H-thymidine incorporation","[8]; Table 8, 75 mg/kg, p.o.",15.9 ± 2.4 cpm/ug DNA
same,"SPECIFIC ACTIVITY, TPA stimulated 3H-thymidine incorporation","[8]; Table 8, 150 mg/kg, p.o.",14.0 ± 1.1 cpm/ug DNA
same,"SPECIFIC ACTIVITY, TPA stimulated 3H-thymidine incorporation","[8]; Table 8, 200 mg/kg, p.o.",14.3 ± 1.7 cpm/ug DNA
same,Mean Uterine Weight ± S.D.,[11],2.15 ± 0.17 mg/100 gm body weight
same,effect on 3H-DMBA binding to skin DNA,[3],inhibit ^3 H-DMBA binding to skin DNA
same,inhibition at 10 µM,[4]; 10^-5 M,77%
same,Percent Inhibition of G6PDH,[4]; 10^-6 M,36% and 29% and 38%
same,inhibition at 1 µM,[4]; 10^-6 M,30%
CCC1(c2ccccc2)C(=O)NC(=O)NC1=O [phenobarbital],effect on liver (type of hepatomegaly),[5],stimulate proliferation of smooth endoplasmic reticulum in liver cells and induce microsomal drug metabolizing enzymes
Clc1ccc(C(c2ccc(Cl)cc2)C(Cl)(Cl)Cl)cc1 [DDT],effect on liver (type of hepatomegaly),[5],stimulate proliferation of smooth endoplasmic reticulum in liver cells and induce microsomal drug metabolizing enzymes
